According to patent publication US20150374646A1, “TREATMENT OF CANCER AND OTHER CONDITIONS USING A TRANSCRIPTION FACTOR MODULATOR” (C & C BIOPHARMA, LLC, priority 2013, published 2015):

What was measured:
[1] = system: RS4;11; assay: Leukemia cell growth inhibition, CellTiter-Glo (Example 1); type: cell-based; conditions: Homo sapiens; RS4;11, ALL (B-cell); 72 hours
Procedure: (§1) Various human leukemia cells were grown to the logarithmic growth phase and seeded into 24-well plates. […] Treated cells were further incubated for 72 hours and then were examined for cell proliferation. Cell proliferation was determined using the CellTiter-Glo Luminescence Cell Viability assay (Promega Corporation, Madison, Wis.) according to the manufacturer's protocol. The calculated inhibition rate was determined with the following formula: Inhibition rate (%)=(1−Luminescence of experimental group/Luminescence of control group)×100. IC50 is the calculated concentration of a compound needed to inhibit half of the maximum cell growth (equivalent to cell growth in control group) based on the corresponding dose-response curve under the described experimental conditions.

[2] = system: K-562; assay: as above; type: cell-based; conditions: Homo sapiens, K562; K-562, CML; 72 hours
Procedure: as §1

[3] = system: MV4-11 cells; assay: Subcutaneous MV4-11 leukemia tumor growth in NOD/SCID mice (Example 5); type: in vivo
Procedure: Female Nonobese Diabetic/Severe Combined Immunodeficiency (NOD/SCID) mice that were 4-6 weeks old were used in the experiment. The mice were fed under specific pathogen free (SPF) conditions. Food and water were available to the mice at will. A suspension of 1×10^7 cells per mouse B-myelomonocytic leukemia MV4-11 cells (0.2 mL) in logarithmic phase were inoculated subcutaneously into the right back of the NOD/SCID nude mice.
The general conditions of the mice and the growth of the transplanted tumor were monitored. […] The control group received an intraperitoneal (IP) injection of 0.2 mL of solvent (20% DMSO, 80% of 20% w/v (2-hydroxypropyl)-β-cyclodextrin made in PBS). […] The high dosage group received an intraperitoneal injection of 50 mg/kg/day of YT30 (0.2 mL in volume) suspended in solvent (20% DMSO, 80% of 20% w/v (2-hydroxypropyl)-β-cyclodextrin made in PBS), while the low dosage group received IP injection of 25 mg/kg/day YT30 (0.2 mL in volume). Frequency of the administration was once per day and the experiment lasted 27 days after treatment started.
The body weights of the mice were recorded prior to the start of treatment and twice every week thereafter. Each mouse of every group was monitored daily for any other symptoms of side effects including change in behavior, activity or posture, areas of redness and swelling, and food and water withdrawal. Caliper measurements of the longest perpendicular tumor diameters were performed every 2 days to estimate the tumor volume; the following formula: 4π/3×(width/2)^2×(length/2) was used to calculate the three-dimensional volume of an ellipse. The tumor inhibition rate was calculated according to tumor volume: Tumor inhibition rate by size (%)=(Tumor volume of the control group−Tumor volume of the treated group)/Tumor volume of the control group×100. The mice were euthanized on the next day after the final injection and the subcutaneous tumor nodules were taken out intact and weighed. The tumor inhibition rate was calculated again according to tumor weight: Tumor inhibition rate by weight (%)=(Tumor weight of the control group−Tumor weight of the treated group)/Tumor weight of the control group×100).

[4] = system: RPMI-8226; assay: Leukemia cell growth inhibition, CellTiter-Glo (Example 1); type: cell-based; conditions: Homo sapiens; RPMI-8226, Multiple myeloma; 72 hours
Procedure: as §1

[5] = system: K562R; assay: as above; type: cell-based; conditions: Homo sapiens, K-562R, CML (Gleevec resistant), 72 hours
Procedure: as §1

[6] = system: REH; assay: as above; type: cell-based, human; conditions: REH cells, 4 μM
Procedure: as §1

[7] = system: MV4-11; assay: as above; type: cell-based; conditions: Homo sapiens; MV4-11, B-myelomonocytic (Biphenotypic B-cell leukemia); 72 hours
Procedure: as §1

[8] = system: SR; assay: as above; type: cell-based; conditions: Homo sapiens, Lymphoma, 72 hours
Procedure: as §1

[9] = system: Nalm-6 cells; assay: Survival of BALB/c nude mice with Nalm-6 acute B cell lymphoblastic leukemia (Example 2); type: in vivo
Procedure: BALB/c nu/nu nude mice were 4 to 5 weeks old with an average weight of 22.4±1.03 grams. The mice were raised under specific pathogen-free (SPF) conditions and had access to food and water freely. Cyclophosphamide at about 130 mg/kg per day was administrated with intraperitoneal (IP) injection for 2 days. Twenty-four hours later, a suspension of 3.5×10^6 or 5×10^6 Nalm-6 cells (0.2 mL) were injected through tail vein of each BALB/c nude mouse. Five days later, the mice were randomly divided into a YT30 treated group (n=5) and a solvent control group (n=5).
Mice in the YT30 treated group were intraperitoneally injected with 200 μL of YT30 (50 mg/kg) once a day, for 5 days a week, and for 3 or 4 weeks. The mice in the solvent control group were intraperitoneally injected with the same volume of solvent (20% DMSO, 80% of 20% w/v (2-hydroxypropyl)-β-cyclodextrin in PBS), and were on the same treatment schedule as the YT30 treated group. The body weights of the mice were recorded prior to the start of the treatment and at least twice a week thereafter. The dosages were adjusted according to the body weight to conform to the 50 mg/kg/day treatment plan. Each mouse of every group was also monitored daily for any other symptoms of side effects including change in behavior, activity or posture, areas of redness and swelling, and food and water withdrawal. […] Dates of death were recorded.

[10] = system: CCRF-CEM; assay: Leukemia cell growth inhibition, CellTiter-Glo (Example 1); type: cell-based; conditions: Homo sapiens, ALL (T-cell), 72 hours
Procedure: as §1

[11] = system: BaF3 BCR-ABL T315I; assay: as above; type: cell-based; conditions: Mouse cell line with BCR-ABL with T315I point mutation (Gleevec resistant), 72 hours
Procedure: as §1

**Q.** `Nc1ccccc1NC(=O)CCCCCC(=O)Nc1cccc(Br)c1` [YT30] was tested. Which IC50 [1] did it give?
**A.** The IC50 was 1050 nM.

**Q.** What about the IC50 [2] of the same molecule?
**A.** Its IC50 is 1820 nM.

**Q.** What about the “Average body weight (g, x ± s) End point” value ([3]; 25 mg/kg I.P. × 27 days) of the same molecule?
**A.** Its value is 21.33 ± 1.26 g.

**Q.** And the “Average body weight (g, x ± s) Initial” value ([3]; 25 mg/kg I.P. × 27 days)?
**A.** Its value is 21.61 ± 1.18 g.

**Q.** What about the “Body weight change (%)” value ([3]; 25 mg/kg I.P. × 27 days) of the same molecule?
**A.** Its value is −1.0%.

**Q.** What about the “Tumor growth Inhibition by weight (%)” value ([3]; 25 mg/kg I.P. × 27 days) of the same molecule?
**A.** The value was 38.8%.

**Q.** And the “Tumor size (mm^3)” value ([3]; 25 mg/kg I.P. × 27 days)?
**A.** Its value is 1072.31 ± 296.29 mm^3.

**Q.** What about the “Tumor weight (g, x ± s)” value ([3]; 25 mg/kg I.P. × 27 days) of the same molecule?
**A.** The value was 1.35 ± 0.47 g.

**Q.** What about the “Tumor growth Inhibition by size (%)” value ([3]; 25 mg/kg I.P. × 27 days (low dosage)) of the same molecule?
**A.** The value was 51.0%.

**Q.** And the “Average body weight (g, x ± s) End point” value ([3]; 50 mg/kg I.P. × 27 days)?
**A.** The value was 18.86 ± 1.38 g.

**Q.** And the “Average body weight (g, x ± s) Initial” value ([3]; 50 mg/kg I.P. × 27 days)?
**A.** Its value is 21.02 ± 0.97 g.

**Q.** What about the “Body weight change (%)” value ([3]; 50 mg/kg I.P. × 27 days) of the same molecule?
**A.** Its value is −6.8%.

**Q.** What about the “Tumor growth Inhibition by weight (%)” value ([3]; 50 mg/kg I.P. × 27 days) of the same molecule?
**A.** The value was 58.8%.

**Q.** What about the “Tumor size (mm^3)” value ([3]; 50 mg/kg I.P. × 27 days) of the same molecule?
**A.** The value was 774.63 ± 269.10 mm^3.

**Q.** And the “Tumor weight (g, x ± s)” value ([3]; 50 mg/kg I.P. × 27 days)?
**A.** Its value is 0.91 ± 0.27 g.

**Q.** What about the “Tumor growth Inhibition by size (%)” value ([3]; 50 mg/kg I.P. × 27 days (high dosage)) of the same molecule?
**A.** Its value is 64.6%.

**Q.** What about the IC50 [4] of the same molecule?
**A.** The IC50 was 2000 nM.

**Q.** And the IC50 [5]?
**A.** Its IC50 is 3.21 µM.

**Q.** And the “Growth inhibition (FIG. 1)” value [6]?
**A.** The value was “significantly inhibit cell growth”.

**Q.** And the IC50 [7]?
**A.** Its IC50 is 4.06 µM.

**Q.** What about the IC50 [8] of the same molecule?
**A.** Its IC50 is 6.89 µM.

**Q.** And the “Average life span after inoculation for IP 50 mg/KG group” value ([9]; IP 50 mg/kg qd for 5 days/week, 3 weeks, 5 × 10^6 Nalm-6 cells, 50 mg/kg)?
**A.** The value was 48.8 ± 9.7 days.

**Q.** And the “Mice that appeared to be cured” value ([9]; IP 50 mg/kg, 4 weeks, 3.5 × 10^6 Nalm-6 cells, euthanized 341 days after treatment start)?
**A.** The value was “three out of five”.

**Q.** And the IC50 [10]?
**A.** The IC50 was 1530 nM.

**Q.** What about the IC50 [11] of the same molecule?
**A.** The IC50 was 1110 nM.
